Assay results taken from US8790678B2, “Biomaterials having nanoscale layers and coatings” (Washington University, priority 2006, dated 2014).
Several values for one entry are separate records, joined by “and”; a condition that tells them apart may be missing. Equal values may be shown once.

Tests used:
S1P1 mRNA = assay: Quantitative real time RT-PCR of S1P1 mRNA; format: cell-based, human; conditions: 10 ng/mL VEGF; HUVEC cultured in plasma; 24 h
Excerpt: Quantitative Real Time Reverse Transcription PCR-In experiments with fluid flow, cell lysates were harvested only in the region of relevant shear stress (0.8-1.2 cm from the center of the well). For conditions without fluid flow, cell lysates were collected from the entire well. Total cell RNA was isolated using an RNeasy kit (Qiagen). Amplification of an 81-bp fragment of S1P1 using primers (5'-[…] NO:7] and 5'-[…] Inc, Coralville, Iowa) and probe (S1P1 Probe: [NT] ID NO:9], IDT Inc) was performed using the Quantitect qRT-PCR kit (Qiagen). The amount of S1P1 or β-Actin RNA was quantified by comparing data to a standard curve generated using the Taqman human endogenous β-actin control kit (Applied Biosystems). The β-actin control kit contains 333 copies of β-actin DNA per ng of total RNA. Knockdown of S1P1 with siRNA-Passage 3 HUVEC at 30-50% confluence were transfected with 100 nM siRNA targeting S1P1 (Silencer validated siRNA against S1P1, Ambion, Austin, Tex.) in antibiotic-free growth medium using Lipofectamine-2000 (Invitrogen). […] At 48 h, cells were incubated with LSM for 12 h. A negative control (Ambion, Silencer Negative Control #2) was used to test for non-specific effects on gene expression or cell survival. Quantitative real-time RT-PCR was used to determine the extent of S1P1 receptor mRNA knockdown 48 h after transfection.

HUVEC [1] = assay: Scrape wound migration assay in platelet poor plasma or low serum medium; format: cell-based, human; conditions: for number of cells in the scrape wound versus plasma alone: no flow
Method: The plasma was passed through a 0.22 μm PVDF syringe filter. Plasma was aliquoted and stored at −20° C. VEGF concentration was measured with a sandwich ELISA kit (Quantikine Human VEGF kit, R&D Systems, Minneapolis, Minn.). The concentration of VEGF was measured in plasma samples from three different donors.
After rinsing with D-PBS, LSM or plasma containing the appropriate stimulants were added to the cells. […] Cells were manually counted using ImagePro Express software (Media Cybernetics, Silver Spring, Md.).
A 2.54 cm diameter Teflon disk was mounted onto the spindle of each motor so that the bottom of the disk was 0.5 cm above the cell monolayer. A total volume of 6 mL of medium was added per well. The motors were driven using a 1.5 V power source resulting in a rotation rate of 150±5 rad/s. […] Cell densities were counted at four locations, each between 0.8 and 1.2 cm away from the center of the well.

HUVEC [2] = assay: Time-lapse microscopy of endothelial cell migration on PEG-OVS/albumin/RGD hydrogels; format: cell-based, human
Method: Time-lapse microscopy was used to quantify endothelial cell migration speeds on PEGOVS/albumin hydrogels containing RGD peptide and preloaded with S1P. RGD peptide was added to the PEG hydrogels to promote endothelial cell adhesion and spreading on the materials. PEG-OVS (3.4 mg in 20 μL) was reacted for 30 min with acetyl-GCGYGRGDSPG-NH2 peptide [SEQ ID NO. 5], to attach the peptide to 1/20 of the vinyl sulfone groups (2.78 mM RGD peptide in the final hydrogel). The PEG hydrogels were crosslinked by reacting PEG-OVS with albumin (5.2 mg in 30 μL) premixed with S1P (5 nmol) to give a final concentration of 100 μM S1P within the crosslinked hydrogel. The resulting solution (50 μL) was pipetted into a 24-well plate and incubated at 37° C. for 24 h to allow crosslinking. HUVEC from passage 5-7 were seeded onto the gels at a concentration of 1000 cells/cm^2. After allowing the cells to spread for 6 h in complete growth medium, HEPES-buffered low serum medium (MCDB 131 with 0.1% FBS, 1% ABAM, […] HEPES, pH 7.4) containing 0.4% FAF-BSA was added to the cells. The cells were tracked using time-lapse microscopy for 12 h, recording images every two minutes. Individual cell migration speeds were analyzed manually using ImageJ to trace the path of each cell over time. […]

plasma lipoproteins = conditions: in blood; cited from earlier work
[3] = system: chorioallantoic membrane (CAM); assay: Chick chorioallantoic membrane (CAM) angiogenesis assay; format: in vivo, chicken; conditions: 50 ng spotted on Thermanox coverslip, two days
Method: Embryonated chicken eggs were incubated blunt-end up in a 37° C. incubator. At embryonal day 6, the top of the egg was cracked and removed using tweezers to create a 1.5 cm diameter opening. The inner shell membrane was removed, exposing the CAM. A 20 μL PEG hydrogel was then placed onto the CAM. As controls, 50 ng bFGF or 50 ng S1P were spotted onto small pieces of Thermanox coverslips (Nunc), air dried and placed onto the CAM. The eggs were sealed with parafilm and returned to the incubator. After two days of incubation, the eggs were reopened and the degree of angiogenesis was visually assessed.

HAEC = assay: Individual cell migration of HAEC in plasma; format: cell-based, human
Method: Individual Cell Migration of HAEC—Passage 6 HAEC were subcultured and incubated in growth medium for 3 days and then were serum-starved for 12 h. HAEC cell densities were less than 100 cell/mm^2 so that cell-cell contacts were unlikely during the duration of the experiment. Any cell that contacted another cell was excluded from data analysis. Plasma was buffered with 20 mM HEPES, pH 7.4, and added to the well. Time-lapse microscopy was used to track the cells every 4 min for 12 h with a 10× objective. The migration speed of individual cells was analyzed using ImageJ software (NIH).

[4] = system: Human aortic endothelial cells; assay: Single cell tracking on RGD/PEG-OVS/albumin hydrogels under fluid shear stress; format: cell-based; conditions: for endothelial cell migration speed: 100 nM S1P
Method: Human aortic endothelial cells seeded onto RGD/PEG-OVS/albumin hydrogels at 1000-2000 cells/cm^2 were tracked under 20 dynes/cm^2 fluid shear stress in HEPES-buffered low serum medium (HEPES-LSM; MCDB 131 with 0.1% FBS, 1% ABAM, […] HEPES, pH 7.4) containing 0.4% FAF-BSA for 12 h.
Time lapse microscopy images were obtained every 2 min for 12 h of endothelial cell migration on the surface of RGD containing PEG hydrogels. The percent of cells remaining on the gels during the course of the experiment was recorded for each RGD concentration. The projected cell areas of all cells were determined by manually outlining the cells after 3 h under 20 dyne/cm^2 shear stress. Single endothelial cells were manually tracked for 12 h to obtain XY-coordinate data for the center of each cell. Coordinate data from every six minutes (Δt=6 min) for all cells in each experiment were saved as variables for analysis in MATLAB (The MathWorks, Natick, Mass.). At each time point i, ti=iΔt, the mean squared displacement was calculated using the overlapping interval method. The speed of each individual was calculated by dividing the root mean-square displacement for a single time interval by the tracking interval (6 min). Each cell's persistence time was determined by fitting the persistent random walk model given by Equation 1: <d^2(t)>=2S^2P[t−P(1−e^−t/P)] [1] using the calculated speed by nonlinear least squares regression analysis as previously described (Dunn 1983; Othmer, Dunbar and Alt 1988; Harms et al. 2005). Speed simply represents the total path length of a cell over time. Persistence time represents the time period between changes in the direction of movement of more than 60°. Path length is calculated as the product of speed and persistence time. Cell dispersion is the product of speed squared and persistence time. Cell areas were obtained by manually tracing cells. All data was analyzed by ANOVA Scheffe post hoc. Endothelial Response to Linear RGD Concentration—Cell Attachment Strength

S1P1 = S1P1 (Homo sapiens, UniProt P21453); conditions: Lee et al., Science (1998); read-out: KD for S1P/S1P1 binding; cited from earlier work
S1P1, sequence (P21453 whole entry, species assumed): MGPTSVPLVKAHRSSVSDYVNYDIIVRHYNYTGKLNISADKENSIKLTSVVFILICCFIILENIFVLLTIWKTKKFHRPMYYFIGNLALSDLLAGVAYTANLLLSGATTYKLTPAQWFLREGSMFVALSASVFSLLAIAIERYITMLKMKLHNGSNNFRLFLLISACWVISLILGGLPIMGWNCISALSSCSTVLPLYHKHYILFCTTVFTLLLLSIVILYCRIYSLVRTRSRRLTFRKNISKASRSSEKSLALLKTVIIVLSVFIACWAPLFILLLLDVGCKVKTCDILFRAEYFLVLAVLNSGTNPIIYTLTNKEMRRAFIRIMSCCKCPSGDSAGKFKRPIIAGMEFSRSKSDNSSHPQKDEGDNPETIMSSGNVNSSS

[5] = S1P 100 nM or VEGF 10 ng/mL added to plasma
[6] = S1P at 0.69 mM cyclic RGD vs 0.52 and 1.38 mM cyclic RGD without S1P
[7] = addition of 100 nM S1P, linear RGD

VEGF
S1P1 mRNA concentration versus plasma alone (S1P1 mRNA): statistically significant increase
number of cells in the scrape wound versus plasma alone (HUVEC [1]; [5]): no differences

CCCCCCCCCCCCC/C=C/[C@@H](O)[C@@H](N)COP(=O)(O)O [S1P, Sphingosine 1-phosphate]
mean migration speed of HUVEC (HUVEC [2]; S1P delivered from preloaded PEG/albumin/RGD hydrogel (100 μM S1P in gel), without S1P 19.2±10.1): 43.8±15.7 μm/h
mean migration speed of HUVEC (HUVEC [2]; culture medium containing 100 nM S1P, on PEG/albumin/RGD hydrogel): 30.2±11.8 μm/h
circulating S1P bound by HDL (plasma lipoproteins): about 55%
circulating S1P bound by other lipoproteins (plasma lipoproteins): about 10%
angiogenic response [3]: strong angiogenic responses
mean cell speed versus plasma alone (HAEC; 100 nM S1P added to static plasma): no difference
mean cell speed versus plasma alone (HAEC; 500 and 1000 nM exogenous S1P): did not lead to a significant increase
mean cell speed versus plasma alone (HAEC; S1P in plasma increased by 200 nM, p=0.023): significantly increased
persistence time ([4]; 100 nM S1P compared to no S1P, cyclic RGD): not significantly changed
endothelial cell migration speed ([4]; cyclic RGD hydrogels, particularly higher concentrations): significant increase in endothelial cell migration speed
endothelial cell migration speed ([4]; highest linear RGD concentrations): more than doubled
projected cell area ([4]; S1P addition, cyclic RGD, after 3 h of shear stress): No clear effect
cell dispersion [4, 6]: statistically greater
path length [4, 6]: statistically greater
cell dispersion [4, 7]: not significant
path length [4, 7]: not significant
persistence time [4, 7]: not clearly affected
cell densities outside the scrape wound area between S1P levels (HUVEC [1]; 0, 200, 500, and 1000 nM exogenous S1P at each time point): no significant differences
number of endothelial cells in a scrape wound versus LSM alone (HUVEC [1]; 100 nM S1P in LSM, 24 h): increased the number of endothelial cells
number of cells in the scrape wound (HUVEC [1]; 100 nM S1P in plasma, fluid flow): did not significantly increase
number of cells in the scrape wound versus plasma alone (HUVEC [1]; 200 nM and 500 nM exogenous S1P, plasma, 24 h): statistically different from plasma alone
migration into the wound area versus plasma alone (HUVEC [1]; 200 nM exogenous S1P, fluid flow, 48 h): significantly different from plasma alone
number of cells in the scrape wound versus plasma alone (HUVEC [1]; 200 nM exogenous S1P, plasma, 48 h): significantly higher than plasma alone
cell density outside the scrape wound at 48 h versus 0 and 24 h (HUVEC [1]; 1000 nM exogenous S1P in static culture): significantly lower cell density
number of cells in the wound area versus plasma alone (HUVEC [1]; 200, 500, or 1000 nM S1P in plasma, fluid flow, 24 h): significant increases
number of cells in the scrape wound versus plasma alone (HUVEC [1]; [5]): no differences
exogenous S1P concentration with the highest number of cells within the scrape wound (HUVEC [1]; plasma, without fluid flow, 100, 200, 500, 1000 nM tested): 200 nM
Kd (S1P1): ~8 nM and 8 nM
